Where two headings read alike, the source gives them in different places.
Legend:
CRBN protein = CRBN protein (Homo sapiens, UniProt Q96SW2); assay: Binding activity to E3 ubiquitin ligase CRBN (HTRF competitive binding kit, Thalidomide-Red)
Excerpt: Binding activity of the E3 ligase inhibitor disclosed in the present invention to E3 ubiquitin ligase CRBN
CRBN binding activity test kit (CEREBLON BINDING KITS (PE, 64BD CRBN PEG).
The detection is based on homogeneous time-resolved fluorescence (HTRF) technology.
This kit uses a europium-labeled GST antibody (GST Eu Cryptate Antibody) as the donor and XL665-labeled thalidomide (Thalidomide-Red reagent) as the receptor. The donor binds to the GST-tagged CRBN protein.
The donor and receptor were each diluted 50-fold using the buffer provided in the kit (PROTAC binding buffer 1). The CRBN protein was diluted 45-fold. An 8mM solution of the compound disclosed herein was diluted 10-fold using the diluent provided in the kit (1X diluent), followed by 7 successive 5-fold serial dilutions of the resulting solution.
The ratio of the acceptor and donor emission signals was calculated for each individual well.
IC50 values was calculated based on compound concentration, Ratio, and coefficient of variation using GraphPad Prism.

VCaP cells = assay: Inhibition of VCaP cell proliferation (WST-8); type: cell-based; conditions: Homo sapiens, 168 hours
How it was run: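 Proliferation was read on day 9 as WST-8 absorbance at 450 nm after VCaP cells (15,000/well, DMEM/10% FBS, 37°C) were exposed from day 2 to compound at 9 points, 5-fold serial dilution, top final concentration 10 µM.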

AR protein = target: T1, AR protein (Homo sapiens, UniProt P10275); assay: AR protein degradation in VCaP cells (Western blot); type: cell-based; conditions: 8h
T1 construct: host or cells: VCaP
T1 sequence (P10275 1-920): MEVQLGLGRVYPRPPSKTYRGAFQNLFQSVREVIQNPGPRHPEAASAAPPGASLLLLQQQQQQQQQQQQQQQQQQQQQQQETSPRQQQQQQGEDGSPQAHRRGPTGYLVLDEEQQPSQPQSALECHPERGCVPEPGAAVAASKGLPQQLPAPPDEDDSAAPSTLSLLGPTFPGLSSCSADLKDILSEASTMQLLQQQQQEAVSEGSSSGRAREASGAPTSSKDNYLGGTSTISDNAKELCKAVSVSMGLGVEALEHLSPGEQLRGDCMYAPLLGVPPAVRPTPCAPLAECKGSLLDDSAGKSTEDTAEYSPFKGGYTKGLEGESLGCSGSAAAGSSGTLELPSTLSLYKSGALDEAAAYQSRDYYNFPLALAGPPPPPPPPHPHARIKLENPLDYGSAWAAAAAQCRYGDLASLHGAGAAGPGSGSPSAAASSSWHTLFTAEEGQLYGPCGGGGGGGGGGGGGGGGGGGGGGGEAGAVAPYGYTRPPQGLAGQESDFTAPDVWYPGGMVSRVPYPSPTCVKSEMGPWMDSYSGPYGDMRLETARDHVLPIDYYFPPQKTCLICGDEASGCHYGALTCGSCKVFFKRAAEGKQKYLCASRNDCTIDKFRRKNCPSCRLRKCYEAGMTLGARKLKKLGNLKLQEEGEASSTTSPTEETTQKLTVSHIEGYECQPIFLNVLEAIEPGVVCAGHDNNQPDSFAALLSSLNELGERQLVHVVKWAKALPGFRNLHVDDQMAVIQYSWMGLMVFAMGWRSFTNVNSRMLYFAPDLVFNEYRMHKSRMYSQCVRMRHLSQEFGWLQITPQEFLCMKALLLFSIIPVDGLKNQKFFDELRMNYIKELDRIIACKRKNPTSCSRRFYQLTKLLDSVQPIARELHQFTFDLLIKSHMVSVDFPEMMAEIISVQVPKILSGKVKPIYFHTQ
Protocol: The degradation activity of the compounds disclosed in the present invention on AR protein in VCaP cells (cell source: ATCC)
The AR-positive human prostate cancer cells VCaP cultured in DMEM (GiBco catalog number 11995-065) containing 10% FBS (Hyclone catalog number SH30406.05) was inoculated in a six-well microplate (Thermo catalog number 140675) at a concentration of 3×10^5 cells/ well. After being cultured overnight in a carbon dioxide incubator (ESCO), the prepared compound of the present invention and the positive control sample ARV-766 (Annaiji) solution of different concentrations were added at a volume of 1 µL/well to make the final concentrations of the compound and the positive control sample reach 5nM and 0.5nM, respectively. At the same time, the corresponding solvent control was set and cultured for 8h. After 8h of culture, the culture medium was removed, and the cells were washed with PBS. RIPA lysis buffer containing 1% Protease Inhibitor Cocktail was added. After lysis and centrifugation, a total protein extract was obtained, and the protein concentration in the extract was detected by BCA method. Protein electrophoresis was performed using SDS-PAGE, and then the protein was transferred to a PVDF (Millipore Sigma catalog number PSRP010R5) membrane at a constant voltage of 100V for 60min. The PVDF membrane was placed in a 5% milk powder 1×TBST solution and blocked at room temperature for 1h. The primary antibody solution (Anti-Androgen receptor, Cell Signaling Technology catalog number: 5153S; 1:2000 dilution) was prepared and was incubated at 4°C overnight. The primary antibody solution was discarded and the PVDF membrane was washed with 1×TBST for 5 minutes each time, for three times. The secondary antibody solution (Thermo catalog number SA5-35571; 1:7500 dilution) was prepared and was incubated at room temperature for 1 hour. The secondary antibody solution was discarded and the PVDF membrane was washed with 1×TBST for 5 minutes each time, for three times. A dual-color infrared laser imaging system (Licor catalog number Odyssey CLX) was used for Western membrane imaging. Image Studio software was used to analyze the grayscale of the bands. GAPDH protein bands were also detected for each sample as the reference. The AR protein degradation rate of the compound and the positive control sample was calculated based on the grayscale of the protein bands.
Table 7 Degradation rate of AR protein in VCaP cells by the compounds disclosed in the present invention

LNCaP cells = assay: Inhibition of LNCaP cell proliferation (WST-8); type: cell-based; conditions: Homo sapiens, LNCaP FGC cells, 96 hours
How it was run: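 WST-8 absorbance at 450 nm measured proliferation after 96 h of compound exposure at 37 °C, 5% CO2. Dosing used nine 5-fold dilutions from a 10 µM top final concentration, applied to cells cultured overnight beforehand.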

[1] = competition with XL665-labeled thalidomide for GST-tagged CRBN protein, HTRF, 3 hours at room temperature
[2] = competition with XL665-labeled thalidomide for GST-tagged CRBN protein, HTRF, 3 hours at room temperature, read-out: IC50

| Compound | IC50 (CRBN protein; [2]) | further results |
| --- | --- | --- |
| Cn1c(=O)n(C2CCC(=O)NC2=O)c2ccc3c(c21)C1(CCNCC1)CO3 (stereo not shown) [Compound D4, 3-(1-Methyl-2-oxo-1,2-dihydro-3H,7H-spiro[benzofuran[4,5-d]imidazole-8,4'-piperidine]-3-yl)piperidine-2,6-dione] | – | IC50 (CRBN protein): 2.3 µM |
| CN(C(=O)c1ccc2c(c1)OC[C@H]1CNCCN21)[C@H]1CCC(=O)NC1=O [Compound B7, (R)-N-((S)-2,6-Dioxyhesperidin-3-yl)-N-methyl-1,2,3,4,4a,5-hexahydrobenzo[b]pyrazino[1,2-d][1,4]oxazine-8-carboxamide] | – | IC50 (CRBN protein; [1]): 5.32 µM |
| COc1cc2c(cc1C(=O)N[C@H]1CCC(=O)NC1=O)OC1(CCNCC1)CC2 [Compound A12, (S)-N-(2,6-dioxohesperidin-3-yl)-6-methoxyspiro[chroman-2,4'-pyridine]-7-carboxamide] | – | IC50 (CRBN protein): 20.3 µM |
| O=C1CCC(Nc2ccc3c(c2)COC[C@H]2CNCCN32)C(=O)N1 (stereo partly shown) [Compound C13] | 8.39 µM | – |
| COc1cc2c(cc1C(=O)N[C@H]1CCC(=O)NC1=O)CCC1(CCNCC1)O2 [Compound A11, (S)-N-(2,6-dioxyhesperidin-3-yl)-7-methoxyspiro[chroman-2,4'-piperidine]-6-carboxamide] | – | IC50 (CRBN protein; [1]): 14.4 µM |
| O=C1CCC(Nc2ccc3c(c2)OCC2(CCNCC2)C3)C(=O)N1 (stereo not shown) [Compound C6, 3-(Spiro[benzopyran-3,4'-piperidine]-7-ylamino)piperidine-2,6-dione] | 3.38 µM | – |
| COc1cc(O[C@H]2C(C)(C)[C@H](NC(=O)c3ccc(N4CCC(CN5CCN6c7ccc(C(=O)N[C@H]8CCC(=O)NC8=O)cc7OC[C@H]6C5)CC4)cc3)C2(C)C)ccc1C#N [A-P-74, (R)-3-((1-(4-(((1R,3R)-3-(4-cyano-3-methoxyphenoxy)-2,2,4,4-tetramethylcyclobutyl)carbamoyl)phenyl)piperidin-4-yl)methyl)-N-((S)-2,6-dioxopiperidin-3-yl)-1,2,3,4,4a,5-hexahydrobenzo[b]pyrazi no[1,2-d][1,4]oxazine-8-carboxamide] | – | IC50 (VCaP cells): 2.16 µM; Degradation rate of AR protein in VCaP cells (AR protein; 0.5 nM): 2%; Degradation rate of AR protein in VCaP cells (AR protein; 5 nM): 70%; IC50 (LNCaP cells): 0.5 µM |
| Cn1c(=O)n(C2CCC(=O)NC2=O)c2cc3c(cc21)OC1(CCNCC1)CC3 (stereo not shown) [Compound D5] | – | IC50 (CRBN protein): 0.66 µM |
| CN(c1ccc2c(c1)COC[C@H]1CNCCN21)C1CCC(=O)NC1=O (stereo partly shown) [Compound C14] | 1.85 µM | – |
| COc1cc2c(cc1C(=O)N[C@H]1CCC(=O)NC1=O)OCC21CCNCC1 [Compound A10, (S)-N-(2,6-dioxohesperidin-3-yl)-5-methoxy-2H-spiro[benzofuran-3,4'-piperidine]-6-carboxamide] | – | IC50 (CRBN protein): 24.5 µM |
| O=C1CCC(Nc2ccc3c(c2)N2CCNC[C@@H]2CCO3)C(=O)N1 (stereo partly drawn) [Compound C11, 3-(((S)-2,3,4,4a,5,6-Hexahydro-1H-benzo[b]pyrazine[1,2-d][1,4]oxacyclopropane-10-yl)amino)piperidine-2,6-dione] | 21.1 µM | – |
| O=C1CCC(Nc2ccc3c(c2)C2(CCNCC2)CO3)C(=O)N1 (stereo not shown) [Compound C2, 3-((2H-spiro[benzofuran-3,4'-piperidine]-5-yl)amino)piperidine-2,6-dione] | 90.5 µM | – |
| CN(c1ccc2c(c1)OC[C@H]1CNCCN21)C1CCC(=O)NC1=O (stereo partly drawn) [Compound C10, 3-(((R)-1,2,3,4,4a,5-Hexahydrobenzo[b]pyrazino[1,2-d][1,4]oxazine-8-yl)(methyl)amino)piperidine-2,6-dione] | 2.06 µM | – |
| O=C1CCC(n2c(=O)n3c4c(cccc42)NCC3)C(=O)N1 (stereo not shown) [Compound D3, 3-(2-oxo-5,6-dihydro-4H-imidazo[1,5,4-de]quinoxalin-1(2H)-yl)piperidine-2,6-dione] | 0.21 µM | – |
| O=C1CC[C@H](NC(=O)c2ccc3c(c2)OCC[C@H]2CNCCN32)C(=O)N1 [Compound B11, (S)-N-((S)-2,6-Dioxopiperidin-3-yl)-2,3,4,4a,5,6-hexahydro-1H-benzo[b]pyrazino[1,2-d][1,4]oxazepine-9-carboxamide] | 54.8 µM | – |
| O=C1CC[C@H](NC(=O)c2c(F)ccc3c2OCC32CCNCC2)C(=O)N1 [Compound A2, (S)-N-(2,6-dioxopiperidin-3-yl)-6-fluoro-2H-spiro[benzofuran-3,4'-piperidine]-7-carboxamide] | 11.9 µM | – |
| O=C1CC[C@H](NC(=O)c2cc3c(cc2F)CCC2(CNC2)O3)C(=O)N1 [Compound A7, (S)-N-(2,6-dioxopiperidin-3-yl)-6-fluoro-spiroazetidine-3,2-dihydropyridine-7-carboxamide] | – | IC50 (CRBN protein): 27.4 µM |
| O=C1CCC(Nc2ccc3c(c2)OCC32CCNCC2)C(=O)N1 (stereo not shown) [Compound C1] | 1.9 µM | – |
| O=C1CC[C@H](NC(=O)c2ccc3c(c2F)OCC32CCNCC2)C(=O)N1 [Compound A1, (S)-N-(2,6-dioxopiperidin-3-yl)-7-fluoro-2H-spiro[benzofuran-3,4'-piperidine]-6-carboxamide] | 15.5 µM | – |
| O=C1CCC(Nc2ccc3c(c2)OCC[C@H]2CNCCN32)C(=O)N1 (stereo partly shown) [Compound C12] | 5.46 µM | – |
| O=C1CCC(Nc2ccc3c(c2)OC2(CC3)CNC2)C(=O)N1 (stereo not shown) [Compound C7, 3-(Spiro[azetidin-3,2'-chroman]-7'-ylamino)piperidine-2,6-dione] | 10.2 µM | – |
| O=C1CC[C@H](NC(=O)c2ccc3c(c2F)OC[C@H]2CNCCN32)C(=O)N1 [Compound B5, (R)-N-((S)-2,6-Dioxyhesperidin-3-yl)-7-fluoro-1,2,3,4,4,4a,5-hexahydrobenzo[b]pyrazino[1,2-d][1,4]oxazine-8-carboxamide] | – | IC50 (CRBN protein): 60 µM |
| O=C1CCC(Nc2ccc3c(c2)OC[C@@H]2CNCCN32)C(=O)N1 (stereo partly drawn) [Compound C16, 3-(((S)-1,2,3,4,4a,5-hexahydrobenzo[b]pyrazine[1,2-d][1,4]oxazine-8-yl)amino)piperidine-2,6-dione] | 2.16 µM | – |
| O=C1CCC(Nc2ccc3c(c2)CCC2(CCNCC2)O3)C(=O)N1 (stereo not shown) [Compound C3] | – | IC50 (CRBN protein; [1]): 5.53 µM |
| O=C1CCC(N2Cc3c(ccc4c3OCC43CCC4(CCNCC4)CC3)C2=O)C(=O)N1 (stereo not shown) [Compound D8] | – | IC50 (CRBN protein): 0.56 µM |
